Assay results taken from ChEMBL document CHEMBL1158205, “Antineoplastic agents. 340. Isolation and structural elucidation of bryostatins 16-18” (J Nat Prod, 1996).
pKi: −log10 of the molar value. Converted amounts (≈) assume the structure as drawn.

Columns and labels:
[1] = molecular target: Protein kinase C alpha type (Homo sapiens, UniProt P17252); assay: Displacement of [3H]PDBu form PKCalpha
[2] = system: OVCAR-3; assay: Growth inhibition of human OVCAR-3 cells by NCI-method; assay type: functional
[3] = system: NCI-H460; assay: Growth inhibition of human NCI-H460 cells by NCI-method; assay type: functional
[4] = system: SK-MEL-5; assay: Growth inhibition of human SK-MEL-5 cells by NCI-method; assay type: functional
[5] = system: SF-295; assay: Growth inhibition of human SF295 cells by NCI-method; assay type: functional
[6] = system: A498; assay: Growth inhibition of human A498 cells by NCI-method; assay type: functional
[7] = system: KM-20L2; assay: Growth inhibition of human KM20L2 cells by NCI-method; assay type: functional
[8] = system: P388; assay: Cytotoxicity against mouse P388 cells; assay type: functional; conditions: read-out: ED50 (the source's name)

Q: With `COC(=O)/C=C1/C[C@H]2C[C@]3(O)O[C@H](C[C@@H](O)CC(=O)O[C@@H]([C@@H](C)O)C[C@@H]4C/C(=C\C(=O)OC)C[C@@](O)(O4)C(C)(C)/C=C/[C@@H](C1)O2)C[C@H](OC(=O)C(C)(C)C)C3(C)C` [BRYOSTATIN 10] as the compound, how does the pKi [1] read?
A: 8.81

Q: Which results are given for `COC(=O)/C=C1/C[C@H]2C[C@]3(O)O[C@H](C[C@@H](O)CC(=O)O[C@@H]([C@@H](C)O)C[C@@H]4C/C(=C\C(=O)OC)C=C(O4)C(C)(C)/C=C/[C@@H](C1)O2)C[C@H](OC(=O)C(C)(C)C)C3(C)C` [BRYOSTATIN 16]?
A: pKi [1]: 6.93; GI50 [2]: 1.9 µg/mL (≈ 2.4 µM); GI50 [3]: 0.019 µg/mL (≈ 0.024 µM); GI50 [4]: 1.2 µg/mL (≈ 1.52 µM); GI50 [5]: 1.4 µg/mL (≈ 1.77 µM); GI50 [6]: 1.9 µg/mL (≈ 2.4 µM); GI50 [7]: 2.2 µg/mL (≈ 2.78 µM); EC50 [8]: 0.0093 µg/mL (≈ 0.0118 µM)

Q: `COC(=O)/C=C1\C=C2O[C@@H](C1)C[C@H]([C@@H](C)O)OC(=O)C[C@H](O)C[C@@H]1C[C@H](OC(=O)C(C)(C)C)C(C)(C)[C@](O)(C[C@@H]3C/C(=C/C(=O)OC)C[C@H](/C=C/C2(C)C)O3)O1` [BRYOSTATIN 17] was tested. Which pKi [1] did it give?
A: 6.73

Q: What about the GI50 [2] of the same compound?
A: 0.16 µg/mL (≈ 0.202 µM)

Q: What about the GI50 [3] of the same compound?
A: 0.16 µg/mL (≈ 0.202 µM)

Q: And the GI50 [4]?
A: 0.16 µg/mL (≈ 0.202 µM)

Q: And the GI50 [5]?
A: 0.16 µg/mL (≈ 0.202 µM)

Q: And the GI50 [6]?
A: 0.16 µg/mL (≈ 0.202 µM)

Q: What about the GI50 [7] of the same compound?
A: 0.16 µg/mL (≈ 0.202 µM)

Q: And the EC50 [8]?
A: 0.019 µg/mL (≈ 0.024 µM)

Q: How did the pKi [1] turn out when `COC(=O)/C=C1/C[C@H]2C[C@]3(O)O[C@H](C[C@@H](O)CC(=O)O[C@@H]([C@@H](C)O)C[C@@H]4C/C(=C/C(=O)OC)C[C@@](O)(O4)C(C)(C)/C=C/[C@@H](C1)O2)C[C@H](OC(=O)C(C)(C)C)C3(C)C` [BRYOSTATIN 18] was run?
A: 8.32

Q: And the GI50 [2]?
A: 0.42 µg/mL (≈ 0.519 µM)

Q: What about the GI50 [3] of the same compound?
A: 0.42 µg/mL (≈ 0.519 µM)

Q: And the GI50 [4]?
A: 0.42 µg/mL (≈ 0.519 µM)

Q: And the GI50 [5]?
A: 0.42 µg/mL (≈ 0.519 µM)

Q: What about the GI50 [6] of the same compound?
A: 0.42 µg/mL (≈ 0.519 µM)

Q: And the GI50 [7]?
A: 0.42 µg/mL (≈ 0.519 µM)

Q: And the EC50 [8]?
A: 0.0033 µg/mL (≈ 0.00408 µM)
